Reference: publication PMC7268545, “Development of a QPatch-Automated Electrophysiology Assay for Identifying TMEM16A Small-Molecule Inhibitors” (Assay and Drug Development Technologies, 2020)
Read-outs that look alike come from different tables or passages of the source.

Target: T1, human ANO1 channel (isoform acd) (Homo sapiens, UniProt Q5XXA6)
T1 construct: host or cells: HEK293T
T1 sequence (Q5XXA6 1-986): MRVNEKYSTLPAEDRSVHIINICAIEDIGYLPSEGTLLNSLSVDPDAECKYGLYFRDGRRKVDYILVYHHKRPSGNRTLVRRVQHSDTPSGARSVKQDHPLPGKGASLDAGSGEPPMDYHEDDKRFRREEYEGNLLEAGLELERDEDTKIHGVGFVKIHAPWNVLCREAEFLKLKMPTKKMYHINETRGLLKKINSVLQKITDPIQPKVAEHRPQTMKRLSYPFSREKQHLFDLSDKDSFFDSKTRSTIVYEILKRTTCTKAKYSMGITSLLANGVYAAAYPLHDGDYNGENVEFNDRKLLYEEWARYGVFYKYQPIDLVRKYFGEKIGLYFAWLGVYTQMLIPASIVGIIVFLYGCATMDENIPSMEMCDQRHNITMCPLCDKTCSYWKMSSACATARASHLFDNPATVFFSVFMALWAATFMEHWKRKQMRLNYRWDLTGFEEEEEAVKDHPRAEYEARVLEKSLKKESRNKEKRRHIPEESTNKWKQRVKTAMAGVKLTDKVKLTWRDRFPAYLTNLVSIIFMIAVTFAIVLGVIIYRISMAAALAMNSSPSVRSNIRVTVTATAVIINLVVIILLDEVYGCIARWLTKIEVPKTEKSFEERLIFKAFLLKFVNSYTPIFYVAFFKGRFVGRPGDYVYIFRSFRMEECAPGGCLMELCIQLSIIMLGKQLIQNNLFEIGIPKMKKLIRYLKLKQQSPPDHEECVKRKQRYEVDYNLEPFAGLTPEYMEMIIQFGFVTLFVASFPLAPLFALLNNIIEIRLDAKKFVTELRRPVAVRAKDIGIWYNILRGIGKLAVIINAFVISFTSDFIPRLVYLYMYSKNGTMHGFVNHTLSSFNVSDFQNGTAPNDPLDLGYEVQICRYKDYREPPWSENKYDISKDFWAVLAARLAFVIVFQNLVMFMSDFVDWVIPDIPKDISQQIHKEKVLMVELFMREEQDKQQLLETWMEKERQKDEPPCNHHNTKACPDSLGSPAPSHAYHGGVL
Assay: QPatch-48 automated whole-cell electrophysiology, cumulative five-concentration single-addition protocol
Format: cell-based
Procedure: HEK293T cells stably expressing the human ANO1 channel (isoform acd) were obtained from Scottish Biomedical. Cells were cultured in Sigma Minimum Essential Media containing 10% heat-inactivated fetal bovine serum, 1% penicillin/streptomycin, 1% glutamine, and […] geneticin. Cells were maintained in a 37°C, 5% CO2 environment. Cells were passaged every 3 days after they had reached ∼70% confluency and were not allowed to reach a density greater than 1–2 × 10^5 cells/cm^2 during routine culture. When subculturing, cells were rinsed once with room temperature 1 × phosphate-buffered saline (PBS; Ca^2+/Mg^2+ free), lifted with TrypLE Express, resuspended in prewarmed growth media, and counted using a hemocytometer. Cells were then plated in T150 flasks at a density of 2.9 × 10^4 cells/cm^2 to be either used in the assay or subcultured 72 h later.
On the day of the experiment, cells plated at a density of 2.9 × 10^4 cells/cm^2 72 h prior should be ∼70%–80% confluent. After cells were rinsed with prewarmed 1 × PBS (Ca^2+/Mg^2+ free), 3 mL of room temperature Detachin solution (Genlantis) was added to the flask and tilted gently two to three times to cover all the cells. Approximately 2 mL of Detachin was aspirated from the flask, leaving 1 mL on the cells, and then placed in the 37°C incubator for 5 min. Once cells had rounded up, the cells were dislodged by tapping the flask gently. The cells were then resuspended in 5 mL of warm serum-free media (EX-CELL ACF CHO Medium; Sigma; supplemented with 4 mM L-glutamine and 10 mM HEPES). A glass Pasteur pipette with a rubber bulb was then used to gently dissociate the cells from one another. Detachin will often leave cells as doublets or clumps, conditions that will disrupt seal formation on the QPatch. The cells were triturated ∼30 times and then, still using the Pasteur pipette, transferred into the QPatch Cell Hotel. This ensures that cells detach from one another leaving a suspension of single cells. A QStirrer was added to the Cell Hotel and the cell suspension was immediately placed on the QPatch device. Cells were utilized within 15 min.
Compounds were reconstituted in dimethyl sulfoxide (DMSO; Sigma) as 10 mM stock solutions. An automated dilution machine set up the microtiter plate (MTP ) by making 1:5 dilutions from a starting concentration of 30 μM. The concentration of DMSO was equal for all concentrations tested. Each MTP contained one row of a negative control (DMSO) and a positive control (benzbromarone). A total of eight compounds were run at a time. All compounds tested were produced in-house.
Whole-cell patch-clamp experiments were performed on a QPatch-48-automated electrophysiology platform (Sophion Biosciences) using the 48-channel, single-hole QPlate (resistance 2.0 ± 0.4 MΩ). The external buffer (in mM) was 140 NaCl, 4 KCl, 2 CaCl2, 1 MgCl2, 10 HEPES, 10 glucose, pH 7.4 (osmolarity = 300), and the internal buffer (in mM) was 110 CsCl, 20 TEA-Cl, 5.374 CaCl2, 1.75 MgCl2, 10 EGTA, 10 HEPES, 4 Na2ATP, pH 7.2 (osmolarity = 310). Cell positioning was set to a 5-s wait time with a positioning pressure of −60 mbar and a positioning time-out of 60 s. Resistance was set to increase 750% to ensure the success of positioning. To obtain a seal, pressure was increased to −70 mbar with an allowed pressure of −130 to −20 mbar and a holding pressure of −20 mbar. The holding potential was set to −70 mV and a 240-s time-out was set. The minimum seal resistance was set to 0.02 GΩ. To go whole cell, five 1-s suction pulses were applied starting at −180 mbar and increasing with −40 mbar increments with a pulse period of 10 s. Suction ramp and voltage zap protocols were kept standard, according to the default HEK cell settings. […] The suction ramp order of use was set to 2 with a ramp amplitude of −450 mbar and a ramp slope of 100 ms/mbar.
Once established in whole-cell configuration, cells are clamped to a holding potential (Vhold) of 0 mV.

[1] = half plate (24-well format), cumulative single-addition, n = 5, read-out: average IC50 (mean ± SD)
[2] = independent experiment 3, read-out: IC50s for independent experiments 3
[3] = independent experiment 4, read-out: IC50s for independent experiments 4
[4] = independent experiment 5, read-out: IC50s for independent experiments 5

IC50 (IC50s for independent experiments 1, independent experiment 1, block at +100 mV, 250 nM internal free-calcium) [µM] | IC50 (IC50s for independent experiments 2, independent experiment 2) [µM] | IC50 (full 48-well plate format (with rundown), n = 1, read-out: IC50, full 48-well plate format) [µM] | IC50 [1] [µM] | IC50 [2] [µM] | IC50 [3] [µM] | IC50 [4] [µM] | IC50 (QPatch, 1-min incubations, read-out: concentration inhibiting 50% of channel current) [µM] | IC50 (independent experiment 1, block at +100 mV, 250 nM internal free-calcium, read-out: IC50s for independent experiments 1) [µM] | IC50 (independent experiment 2, read-out: IC50s for independent experiments 2) [µM] | SMILES
3.45 | 1.51 | 0.73 | 2.54 ± 0.94 | 1.31 | 2.3 | 3.18 |  |  |  | CCc1oc2ccccc2c1C(=O)c1cc(Br)c(O)c(Br)c1 [Benzbromarone]
 |  |  | 1.6 ± 0.39 | 1.05 | 2.09 | 1.81 | ~1 | 1.62 | 1.43 | O=C(Nc1ccc([N+](=O)[O-])cc1Cl)c1cc(Cl)ccc1O [Niclosamide]
